Structures are written as SMILES. Non-standard residues stand in square brackets, D forms with d. Residues, ends and D or L forms follow the SMILES beside them.

One experiment relates to pituitaries. As to the kind of experiment: In vitro growth hormone release study (incubated rat pituitaries, GH by RIA). Format: cell-based. On the procedure:
Female rats at the CD-1 strain were housed in a constant temperature room at 24° C. with 14 hours light and 10 hours darkness. The rats were fed Purina brand rat chow ab libitum. All studies were started between 0800 and 1000 hours.
Pituitaries were removed from 20 day old female rats. In each polytetrafluoroethylene beaker (10 ml) was incubated two pituitaries at 36° C. in 1 ml of lactated Ringer's solution in a Dubnoff Shaker (90 cycles/min.). All medium in each beaker was removed each hour (e.g., P1, P2, I3, I4, I5) and then fresh medium was added back to each beaker. Each medium removed was assayed for GH, in duplicate, by a standard radioimmunoassay (RIA).
The growth hormone agonist of Example 1 was not added to the incubation mediums employed during the first hour of the incubation period (P1) or to the incubation mediums employed during the second hour of the incubation period (P2). The growth hormone agonist of Example 1 was dissolved in dimethylsulfoxide (DMSO; 10:1, agonist:DMSO), added to each incubation medium employed during the third hour of the incubation period (I3), to each medium employed during the fourth hour of the incubation period (I4) and to each medium employed during the fifth hour of the incubation period (I5). The release of growth hormone was recorded as ΔGH and calculated by subtracting the amount of GH released at P2 from that released at I3, I4, and I5. The agonist activity was determined from the release at I3, I4, and I5.
The procedure set forth in Example 11 with one modification was employed in an in vitro growth hormone release study of the peptide of Example 6 and the results therefrom are set forth in Table XI. The sole modification was the deletion of I5 from the procedure of Example 11.
The procedure set forth in Example 11 with one modification was employed in an in vitro growth hormone release study of the peptide of Example 7 and the results therefrom are set forth in Table XII. The sole modification was the deletion of I5 from the procedure of Example 11.

Another experiment deals with growth hormone release. Briefly: In vivo growth hormone release study (serum GH by RIA about 15 minutes after intraperitoneal injection). On the set-up: species or system rat. Particulars: 21 day old female rats, serum about 15 minutes after injection, mean of 8 ± SEM, control 4 ± 1. On the procedure: Female rats of the CD-1 strain were housed in a constant temperature room at 24° C. with 14 hours light and 10 hours darkness. The rats were fed Purina brand rat chow ab libitum. All studies were started between 0800 and 1000 hours.
Each female rat (21 days old; eight rats per dosage level shown in Table XVI) was intraperitoneally injected with a desired dosage of the peptide of Example 1. Approximately 15 minutes after injection, the rat was guillotined. A blood sample was collected from the guillotined rat. The blood sample was centrifuged and a serum sample was collected therefrom. Each serum sample was assayed for GH, in duplicate, by a standard radioimmunoassay (RIA).

Setting [1] is: dosage 1 ng/ml incubation medium, mean of 9 assays (I3, I4, I5 minus P2) ± SEM.
The mark [2] stands for this setting: dosage 10 ng/ml incubation medium, mean of 9 assays (I3, I4, I5 minus P2) ± SEM.
The mark [3] stands for this setting: dosage 100 ng/ml incubation medium, mean of 9 assays (I3, I4, I5 minus P2) ± SEM.
[4] abbreviates: dosage 1,000 ng/ml incubation medium, mean of 9 assays (I3, I4, I5 minus P2) ± SEM.
The mark [5] stands for this setting: dosage 30 ng/ml incubation medium, mean of 9 assays (I3, I4, I5 minus P2) ± SEM.
Where [6] appears, read: dosage 3 ng/ml incubation medium, mean of 9 assays (I3, I4, I5 minus P2) ± SEM.

Take `C[C@H](NC(=O)[C@@H](Cc1c[nH]c2ccccc12)NC(=O)[C@@H](N)Cc1c[nH]cn1)C(=O)N[C@@H](Cc1c[nH]c2ccccc12)C(=O)N[C@H](Cc1ccc(O)cc1)C(N)=O` [Example 3, H2 -His-D-Trp-Ala-Trp-D-Tyr-NH2] (H-H[dW]AW[dY]-NH2): the ΔGH was -126 ng/mL with pituitaries (setting [1]), -99 ng/mL with pituitaries (setting [2]), -238 ng/mL with pituitaries (setting [3]) and 2598 ng/mL in the experiment on pituitaries (setting [4]).
On the same counts, the results for `C[C@H](NC(=O)[C@@H](Cc1c[nH]c2ccccc12)NC(=O)[C@@H](N)Cc1c[nH]cn1)C(=O)N[C@@H](Cc1c[nH]c2ccccc12)C(=O)N[C@H](Cc1c[nH]cn1)C(N)=O` [Example 4, H2 -His-D-Trp-Ala-Trp-D-His-NH2] (H-H[dW]AW[dH]-NH2) are -166 ng/mL, -369 ng/mL, 43 ng/mL and 1501 ng/mL.
Turning to `CC(=O)N[C@@H](Cc1ccc(O)cc1)C(=O)N[C@H](Cc1c[nH]c2ccccc12)C(=O)N[C@@H](C)C(=O)N[C@@H](Cc1c[nH]c2ccccc12)C(=O)N[C@H](Cc1ccccc1)C(N)=O` [Example 9, CH3 CO-Tyr-D-Trp-Ala-Trp-D-Phe-NH2] (Ac-Y[dW]AW[dF]-NH2), the ΔGH was -297 ± 79 ng/mL in the experiment on pituitaries (setting [2]); -118 ± 97 ng/mL in the experiment with pituitaries (setting [5]); 5 ± 29 ng/mL in the experiment on pituitaries (dosage 300 ng/ml incubation medium, mean of 9 assays (I3, I4, I5 minus P2) ± SEM); 1594 ± 385 ng/mL in the experiment with pituitaries (dosage 3,000 ng/ml incubation medium, mean of 9 assays (I3, I4, I5 minus P2) ± SEM); 1607 ± 250 ng/mL in the experiment with pituitaries (dosage 30,000 ng/ml incubation medium, mean of 9 assays (I3, I4, I5 minus P2) ± SEM).
As to `C[C@@H](NC(=O)[C@@H](Cc1c[nH]c2ccccc12)NC(=O)[C@@H](N)Cc1ccc(O)cc1)C(=O)N[C@@H](Cc1c[nH]c2ccccc12)C(=O)N[C@H](Cc1ccccc1)C(N)=O` [Example 6, H2 -Tyr-D-Trp-D-Ala-Trp-D-Phe-NH2] (H-Y[dW][dA]W[dF]-NH2), the ΔGH in the experiment on pituitaries (dosage 300 ng/ml incubation medium, I5 deleted, mean of 6 assays (I3, I4 minus P2) ± SEM) was 648 ± 210 ng/mL; in the experiment on pituitaries (dosage 3,000 ng/ml incubation medium, I5 deleted, mean of 6 assays (I3, I4 minus P2) ± SEM), 435 ± 143 ng/mL; in the experiment on pituitaries (dosage 30,000 ng/ml incubation medium, I5 deleted, mean of 6 assays (I3, I4 minus P2) ± SEM), 1136 ± 190 ng/mL.
Regarding `C[C@H](NC(=O)[C@@H](Cc1c[nH]c2ccccc12)NC(=O)[C@@H](N)Cc1c[nH]cn1)C(=O)N[C@@H](Cc1c[nH]c2ccccc12)C(=O)N[C@H](Cc1ccccc1)C(N)=O` [Example 1, H2 -His-D-Trp-Ala-Trp-D-Phe-NH2] (H-H[dW]AW[dF]-NH2), the ΔGH in the experiment with growth hormone release (dosage 0.1 (μg/ml serum)) came out at 1 ± 1 ng/mL; with growth hormone release (dosage 1.0 (μg/ml serum)) it was 2 ± 2 ng/mL; in the experiment with growth hormone release (dosage 10.0 (μg/ml serum)) it was 2 ± 1 ng/mL; in the experiment on growth hormone release (dosage 100.0 (μg/ml serum)), 82 ± 18 ng/mL; in the experiment on pituitaries (setting [1]) it was 206 ng/mL; in the experiment with pituitaries (setting [6]) it was 288 ng/mL. In addition, the ΔGH with pituitaries (setting [2]) was 2,005 ng/ml; in the experiment on pituitaries (setting [5]) it was 3,046 ng/ml.
In the case of `C[C@H](NC(=O)[C@@H](Cc1c[nH]c2ccccc12)NC(=O)[C@@H](N)Cc1ccc(O)cc1)C(=O)N[C@@H](Cc1c[nH]c2ccccc12)C(=O)N[C@H](Cc1c[nH]cn1)C(N)=O` [Example 2, H2 -Tyr-D-Trp-Ala-Trp-D-His-NH2] (H-Y[dW]AW[dH]-NH2), the ΔGH with pituitaries (setting [1]) is -179 ng/mL; with pituitaries (setting [6]) it was -192 ng/mL; with pituitaries (setting [2]), -802 ng/mL; in the experiment with pituitaries (setting [5]) it was 611 ng/mL.

These data come from patent US4410513A, “Synthetic peptides having pituitary growth hormone releasing activity” (Beckman Instruments, Inc., priority 1981, dated 1983).
